Like-named read-outs stand apart in the source and are kept apart here.

This is an account of results in patent publication US6458026B1, “Integrin-targeting vectors having transfection activity” (ICH Productions Limited, priority 1997, dated 2002).

The test system of one assay is integrins. Particulars: cited from earlier work.
Assay [1] has as its system human lung fibroblasts (HFL-1 cells). As to the kind of experiment: Antisense transfection: thrombin-induced proliferation of HFL-1 cells. Format: cell-based. The settings on record: thrombin-treated cells. Here is the method: Thrombin stimulates proliferation of human lung fibroblasts. Thrombin-treated human lung fibroblasts (HFL-1 cells) proliferated 53% in response to thrombin. 24 hours before treatment with thrombin, HFL-1 cells were treated with an LID complex comprising [K]16-peptide 6, lipofectin and a 20-mer antisense oligonucleotide directed against the thrombin receptor PAR-1 in the optimal ratio and mixing order prepared as described in the Materials and Methods section and the Examples above. The antisense oligonucleotide-containing complex was in contact with the cells for 4 hours. 24 hours after the start of the treatment with the complex, treatment with thrombin was carried out.

In the case of GACRRETAWACG [Peptide 6], the integrin specificity entry in the assay on integrins is on record as “α5β1-specific”.
As to thrombin, the “proliferation in response to thrombin” value in assay [1] was 53%.
Consider GACRGDMFGCA [Peptide 1], for which the integrin specificity result with integrins is “has affinity for α5 and αv integrins but is non-specific”.
With GACDCRGDCFCA [Peptide 5], the integrin specificity result is listed as “Peptide 5 (αv)” in the assay on integrins and “has high affinity for integrin αv but is not αv-specific” in the assay on integrins (listed as peptide 5).
